Format in all cases: biochemical
For assay [1], the target named is Human DNA Pol β (Homo sapiens, UniProt P06746). The assay is described as follows: Enzyme assay with human DNA polymerase β.
Assay [2] concerns the target HCMV DNA polymerase (UL54) (Human cytomegalovirus, UniProt P08546). The assay is described as follows: Enzyme assay with HCMV DNA polymerase. Particulars: for superior activity against HCMV DNA polymerase compared to thymine-α-CNP: ratio vs thymine-α-CNP; for IC50: activated calf thymus DNA, [3H]dTTP.
Assay [3] deals with VZV DNA polymerase (Varicella-zoster virus, UniProt P09252). The assay is described as follows: Enzyme assay with VZV DNA polymerase.
VZV DNA polymerase, sequence (P09252 whole entry): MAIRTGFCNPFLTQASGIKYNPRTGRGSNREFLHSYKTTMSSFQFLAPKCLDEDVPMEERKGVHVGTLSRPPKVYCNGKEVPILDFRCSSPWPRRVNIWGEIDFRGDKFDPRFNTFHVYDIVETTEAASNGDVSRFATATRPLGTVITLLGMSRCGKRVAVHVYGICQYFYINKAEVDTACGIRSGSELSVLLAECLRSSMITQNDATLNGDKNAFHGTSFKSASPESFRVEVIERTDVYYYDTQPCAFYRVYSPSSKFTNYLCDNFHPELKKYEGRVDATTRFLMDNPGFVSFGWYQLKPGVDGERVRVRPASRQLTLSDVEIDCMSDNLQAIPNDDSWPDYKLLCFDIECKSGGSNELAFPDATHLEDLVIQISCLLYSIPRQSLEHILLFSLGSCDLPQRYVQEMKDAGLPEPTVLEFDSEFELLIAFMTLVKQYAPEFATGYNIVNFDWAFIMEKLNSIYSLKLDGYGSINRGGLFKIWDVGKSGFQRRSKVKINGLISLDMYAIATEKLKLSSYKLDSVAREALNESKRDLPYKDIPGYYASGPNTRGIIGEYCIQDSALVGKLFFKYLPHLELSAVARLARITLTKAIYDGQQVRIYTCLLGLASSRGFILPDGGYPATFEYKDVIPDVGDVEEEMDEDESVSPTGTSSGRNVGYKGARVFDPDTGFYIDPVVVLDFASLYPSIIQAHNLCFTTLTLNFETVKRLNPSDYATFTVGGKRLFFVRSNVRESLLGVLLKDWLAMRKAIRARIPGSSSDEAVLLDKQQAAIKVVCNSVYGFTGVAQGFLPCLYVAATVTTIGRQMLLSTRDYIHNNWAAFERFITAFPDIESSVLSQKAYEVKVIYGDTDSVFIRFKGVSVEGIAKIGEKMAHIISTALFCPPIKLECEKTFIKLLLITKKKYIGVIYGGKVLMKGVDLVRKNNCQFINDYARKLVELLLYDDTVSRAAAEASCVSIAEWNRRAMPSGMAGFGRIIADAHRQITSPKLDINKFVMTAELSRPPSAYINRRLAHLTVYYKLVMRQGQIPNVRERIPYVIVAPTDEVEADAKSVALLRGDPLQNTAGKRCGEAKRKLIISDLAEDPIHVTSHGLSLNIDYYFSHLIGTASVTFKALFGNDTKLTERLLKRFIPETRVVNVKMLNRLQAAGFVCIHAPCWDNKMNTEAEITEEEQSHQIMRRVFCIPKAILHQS
The target of assay [4] is HSV-1 DNA polymerase (Human herpesvirus 1, UniProt P04293). The assay is described as follows: Enzyme assay with HSV-1 DNA polymerase.
HSV-1 DNA polymerase, sequence (P04293 whole entry): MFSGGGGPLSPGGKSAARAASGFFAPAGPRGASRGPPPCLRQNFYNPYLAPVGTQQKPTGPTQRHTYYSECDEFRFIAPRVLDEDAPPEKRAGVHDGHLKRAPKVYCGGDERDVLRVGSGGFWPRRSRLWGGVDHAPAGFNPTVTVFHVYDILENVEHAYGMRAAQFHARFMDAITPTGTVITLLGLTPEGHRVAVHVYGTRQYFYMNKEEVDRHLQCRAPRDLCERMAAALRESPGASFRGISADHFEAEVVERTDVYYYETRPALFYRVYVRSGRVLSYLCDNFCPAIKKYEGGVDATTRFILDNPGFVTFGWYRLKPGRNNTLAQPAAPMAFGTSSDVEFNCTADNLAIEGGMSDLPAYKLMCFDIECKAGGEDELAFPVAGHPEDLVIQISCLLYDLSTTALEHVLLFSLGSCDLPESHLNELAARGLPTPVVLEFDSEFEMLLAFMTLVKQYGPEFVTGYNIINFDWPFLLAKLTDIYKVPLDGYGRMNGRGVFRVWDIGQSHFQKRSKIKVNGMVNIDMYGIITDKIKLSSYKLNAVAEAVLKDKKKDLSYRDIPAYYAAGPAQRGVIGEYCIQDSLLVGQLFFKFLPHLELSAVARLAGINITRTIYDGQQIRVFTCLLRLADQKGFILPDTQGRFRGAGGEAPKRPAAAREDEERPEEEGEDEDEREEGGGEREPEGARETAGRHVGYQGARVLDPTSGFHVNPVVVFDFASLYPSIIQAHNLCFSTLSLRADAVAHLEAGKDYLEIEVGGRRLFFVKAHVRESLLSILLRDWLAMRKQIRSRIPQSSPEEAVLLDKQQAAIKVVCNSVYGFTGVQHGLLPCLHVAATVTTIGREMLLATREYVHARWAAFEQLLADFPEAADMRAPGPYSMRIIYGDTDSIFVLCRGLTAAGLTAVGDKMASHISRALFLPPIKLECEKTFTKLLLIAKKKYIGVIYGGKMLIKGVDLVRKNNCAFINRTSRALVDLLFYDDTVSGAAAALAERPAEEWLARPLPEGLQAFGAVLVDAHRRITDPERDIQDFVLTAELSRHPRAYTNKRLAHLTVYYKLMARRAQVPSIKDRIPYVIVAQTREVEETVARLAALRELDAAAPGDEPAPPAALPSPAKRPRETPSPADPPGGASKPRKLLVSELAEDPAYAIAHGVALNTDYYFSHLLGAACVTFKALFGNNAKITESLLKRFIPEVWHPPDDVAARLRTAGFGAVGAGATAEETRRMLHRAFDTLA
Assay [5] addresses HIV-1 RT (Human immunodeficiency virus type 1 group M subtype B, UniProt P03366). The assay is described as follows: HIV-1 reverse transcriptase assay with homopolymeric template/primers.
For assay [6], the target named is T1, Human DNA Pol α (Homo sapiens, UniProt P09884).
T1 sequence (P09884 1-1462): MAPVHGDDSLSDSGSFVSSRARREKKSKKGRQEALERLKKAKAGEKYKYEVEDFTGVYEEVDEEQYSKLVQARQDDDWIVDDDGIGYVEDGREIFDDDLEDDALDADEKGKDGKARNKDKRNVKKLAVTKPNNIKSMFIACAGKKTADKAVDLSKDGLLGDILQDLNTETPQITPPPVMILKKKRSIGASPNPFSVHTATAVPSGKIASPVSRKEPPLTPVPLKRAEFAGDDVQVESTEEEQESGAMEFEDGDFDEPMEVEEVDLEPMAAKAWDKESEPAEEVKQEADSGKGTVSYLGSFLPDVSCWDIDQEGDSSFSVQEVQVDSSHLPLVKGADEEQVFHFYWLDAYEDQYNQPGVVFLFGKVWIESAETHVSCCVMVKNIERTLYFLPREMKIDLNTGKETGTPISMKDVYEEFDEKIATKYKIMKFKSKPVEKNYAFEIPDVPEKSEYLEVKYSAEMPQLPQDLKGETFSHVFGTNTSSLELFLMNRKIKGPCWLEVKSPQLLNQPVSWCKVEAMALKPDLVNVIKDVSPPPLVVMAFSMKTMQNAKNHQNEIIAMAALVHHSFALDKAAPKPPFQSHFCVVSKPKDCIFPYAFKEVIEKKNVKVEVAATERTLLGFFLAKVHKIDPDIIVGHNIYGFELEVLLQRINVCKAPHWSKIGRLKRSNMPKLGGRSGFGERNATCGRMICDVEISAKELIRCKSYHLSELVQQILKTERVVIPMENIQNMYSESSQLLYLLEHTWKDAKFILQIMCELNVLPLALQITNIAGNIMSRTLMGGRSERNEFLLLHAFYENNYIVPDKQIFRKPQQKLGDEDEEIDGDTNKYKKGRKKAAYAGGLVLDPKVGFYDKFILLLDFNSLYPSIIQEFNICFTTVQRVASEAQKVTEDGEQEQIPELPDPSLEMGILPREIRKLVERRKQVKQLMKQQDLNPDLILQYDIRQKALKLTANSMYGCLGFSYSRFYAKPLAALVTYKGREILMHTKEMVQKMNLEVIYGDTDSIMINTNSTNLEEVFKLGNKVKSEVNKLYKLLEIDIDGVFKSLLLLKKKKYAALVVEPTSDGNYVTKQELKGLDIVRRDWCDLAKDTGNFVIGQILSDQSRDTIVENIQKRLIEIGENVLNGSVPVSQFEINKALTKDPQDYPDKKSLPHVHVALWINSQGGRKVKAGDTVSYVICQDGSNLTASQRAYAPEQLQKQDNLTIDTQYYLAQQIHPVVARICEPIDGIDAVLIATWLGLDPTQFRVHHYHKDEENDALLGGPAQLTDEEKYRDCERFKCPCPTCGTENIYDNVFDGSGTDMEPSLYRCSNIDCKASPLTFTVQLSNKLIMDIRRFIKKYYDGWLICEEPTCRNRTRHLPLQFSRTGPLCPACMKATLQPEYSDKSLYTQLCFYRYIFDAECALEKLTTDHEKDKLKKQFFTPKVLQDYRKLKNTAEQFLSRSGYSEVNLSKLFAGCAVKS
The assay is described as follows: Enzyme assay with human DNA polymerase α.

The mark [7] stands for this setting: read-out: IC50 Human DNA Pol β, activated calf thymus DNA, [3H]dTTP.
The mark [8] stands for this setting: read-out: IC50 VZV DNA Pol, poly dA.oligo dT, [3H]dTTP.
Setting [9] is: read-out: IC50 HSV-1 DNA Pol, activated calf thymus DNA, [3H]dTTP.
The mark [10] stands for this setting: read-out: IC50 HIV-1 RT, poly rA.dT template/primer, [3H]dTTP.
The mark [11] stands for this setting: read-out: IC50 Human DNA Pol α, activated calf thymus DNA, [3H]dTTP.
Setting [12] is: IC50 HIV-1 RT, poly rA.dT template/primer, [3H]dTTP.
[13] abbreviates: read-out: IC50 HIV-1 RT Poly rA.dT ([3H]dTTP), Table 7, Poly rA.dT, [3H]dTTP.
Setting [14] is: read-out: IC50 HIV-1 RT Poly rC.dG ([3H]dGTP), Poly rC.dG, [3H]dGTP.
The mark [15] stands for this setting: read-out: IC50 HIV-1 RT Poly rI.dC ([3H]dCTP), Poly rI.dC, [3H]dCTP.
The mark [16] stands for this setting: read-out: IC50 HIV-1 RT Poly rU.dA ([3H]dATP), Poly rU.dA, [3H]dATP.

Read-outs that look alike come from different tables or passages of the source.

HCMV DNA polymerase (UL54), sequence (P08546 whole entry): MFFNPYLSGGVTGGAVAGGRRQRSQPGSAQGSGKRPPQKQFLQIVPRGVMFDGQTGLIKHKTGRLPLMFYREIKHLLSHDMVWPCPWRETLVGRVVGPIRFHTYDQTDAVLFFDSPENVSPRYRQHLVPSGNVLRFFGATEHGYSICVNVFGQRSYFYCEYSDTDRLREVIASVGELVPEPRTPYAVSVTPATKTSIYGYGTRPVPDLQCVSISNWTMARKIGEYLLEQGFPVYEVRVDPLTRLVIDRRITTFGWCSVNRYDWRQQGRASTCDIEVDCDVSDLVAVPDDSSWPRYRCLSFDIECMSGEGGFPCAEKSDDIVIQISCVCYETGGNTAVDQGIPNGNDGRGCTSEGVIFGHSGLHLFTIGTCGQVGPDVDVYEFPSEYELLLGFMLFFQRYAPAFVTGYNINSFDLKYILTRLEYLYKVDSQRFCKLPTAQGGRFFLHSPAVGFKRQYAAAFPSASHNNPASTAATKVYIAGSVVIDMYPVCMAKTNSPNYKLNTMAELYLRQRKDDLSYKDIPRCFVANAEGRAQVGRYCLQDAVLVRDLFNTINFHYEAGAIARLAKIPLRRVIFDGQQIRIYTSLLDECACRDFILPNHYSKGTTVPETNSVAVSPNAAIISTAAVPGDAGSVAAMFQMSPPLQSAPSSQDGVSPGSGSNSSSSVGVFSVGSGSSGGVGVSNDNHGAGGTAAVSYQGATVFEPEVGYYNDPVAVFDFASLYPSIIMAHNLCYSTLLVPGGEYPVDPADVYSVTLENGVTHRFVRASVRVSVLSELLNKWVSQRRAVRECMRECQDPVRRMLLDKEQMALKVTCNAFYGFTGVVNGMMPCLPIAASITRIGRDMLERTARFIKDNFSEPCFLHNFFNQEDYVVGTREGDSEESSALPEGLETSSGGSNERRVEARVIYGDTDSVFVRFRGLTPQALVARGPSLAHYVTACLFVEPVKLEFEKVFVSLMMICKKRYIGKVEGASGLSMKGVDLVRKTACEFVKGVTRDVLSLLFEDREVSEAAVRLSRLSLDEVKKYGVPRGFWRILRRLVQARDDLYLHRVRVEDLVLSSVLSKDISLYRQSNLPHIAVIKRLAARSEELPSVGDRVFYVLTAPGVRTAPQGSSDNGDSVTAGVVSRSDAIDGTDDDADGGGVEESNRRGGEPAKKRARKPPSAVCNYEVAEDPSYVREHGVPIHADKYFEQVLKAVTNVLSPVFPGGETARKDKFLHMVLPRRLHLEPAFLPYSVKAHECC

On to `Cc1cn(C[C@H]2C[C@H]2COC(C(=O)O)P(=O)(O)O)c(=O)[nH]c1=O` (relative stereo) [Compound 6b], for which the IC50 was determined as 390 ± 127 µM in assay [1] (setting [7]); 4.6 ± 0.2 µM in assay [2] (read-out: IC50 HCMV DNA Pol); 12 ± 3 µM in assay [3] (setting [8]); 36 ± 12 µM in assay [4] (setting [9]); 440 ± 85 µM in assay [5] (setting [10]); 183 ± 8 µM in assay [6] (setting [11]). Further, the “superior activity against HCMV DNA polymerase compared to thymine-α-CNP” value (“superior activity … compared to thymine-α-CNP” for short) in assay [2] is recorded as 8- to 13 fold.
Take `O=C(O)C(OC/C=C\Cn1cc(F)c(=O)[nH]c1=O)P(=O)(O)O` (stereo not drawn) [Compound 6i, 2-Cis-(4-(5-fluoro-2,4-dioxo-3,4-dihydropyrimidin-1(2H)-yl)but-2-enyloxy)-2-phosphonoacetic acid]: the IC50 in assay [1] is over 500 µM; in assay [2] (IC50 HCMV DNA Pol), 30 ± 16 µM; in assay [3], 27 ± 2 µM; in assay [4] it was 24 ± 1 µM; in assay [5] (setting [12]), over 500 µM; in assay [6], 325 ± 4 µM.
Turning to `Cc1cn(C[C@H]2CCCC[C@H]2COC(C(=O)O)P(=O)(O)O)c(=O)[nH]c1=O` (relative stereo) [Compound 6e], the IC50 in assay [1] (setting [7]) was over 500 µM; in assay [2] (read-out: IC50 HCMV DNA Pol), 4 µM; in assay [3] (setting [8]) it was 16 ± 1 µM; in assay [4] (setting [9]) it was 8.6 ± 6.6 µM; in assay [5] (setting [10]), at least 500 µM; in assay [6] (setting [11]), 69 ± 21 µM. The “superior activity … compared to thymine-α-CNP” value in assay [2] was 8- to 13 fold.
`Nc1ccn([C@H]2CC[C@@H](COP(=O)(O)OP(=O)(O)OP(=O)(O)O)O2)c(=O)n1` [ddCTP, reference compound]: the IC50 in assay [5] (IC50 HIV-1 RT Poly rA.dT ([3H]dTTP)) was over 20 µM; in assay [5] (IC50 HIV-1 RT Poly rC.dG ([3H]dGTP)) it was over 20 µM; in assay [5] (IC50 HIV-1 RT Poly rI.dC ([3H]dCTP)), 3.1 ± 2.2 µM; in assay [5] (IC50 HIV-1 RT Poly rU.dA ([3H]dATP)), over 20 µM.
For `Cc1cn(CCCCOC(C(=O)O)P(=O)(O)O)c(=O)[nH]c1=O` (centres unmarked) [Compound 6h, 2-(4-(2,4-Dioxo-5-methyl-pyrimidin-1-yl)butyloxy)-2-phosphonoacetic acid], the IC50 was 450 ± 105 µM in assay [1]; 27 ± 12 µM in assay [3]; 45 ± 27 µM in assay [4]; 145 ± 106 µM in assay [5] (setting [12]); 301 ± 51 µM in assay [6].
As to `Cc1cn(Cc2ccccc2COC(C(=O)O)P(=O)(O)O)c(=O)[nH]c1=O` (centres unmarked) [Compound 6d, 2-(2-((2,4-Dioxo-5-methyl-pyrimidin-1-yl)methyl)benzyloxy)-2-phosphonoacetic acid], the IC50 came to 76 ± 30 µM in assay [1]; 2.9 ± 0.7 µM in assay [3]; 7.5 ± 5 µM in assay [4]; 131 ± 86 µM in assay [5] (setting [12]); 75 ± 18 µM in assay [6]. In addition, the “superior activity … compared to thymine-α-CNP” value in assay [2] is ~ 3 fold. In assay [3] (ratio vs thymine-α-CNP), the “more active against VZV DNA polymerase than thymine-α-CNP” value is recorded as 13 fold. The “more active against HSV-1 DNA polymerase than thymine-α-CNP” value in assay [4] (ratio vs thymine-α-CNP) was ~ 3 fold.
`O=c1[nH]c(=O)n([C@H]2C[C@H](O)[C@@H](COP(=O)(O)OP(=O)(O)OP(=O)(O)O)O2)cc1/C=C/Br` [BVDU-TP, (E)-5-(2-Bromovinyl)-2′-deoxyuridine-5′-triphosphate, reference compound]: the IC50 in assay [1] stood at 26 ± 4 µM; in assay [2] (IC50 HCMV DNA Pol) it was 3.6 ± 0.7 µM; in assay [3], 0.49 ± 0.09 µM; in assay [4], 1.9 ± 0.9 µM; in assay [5] (setting [12]) it was 0.89 ± 0.4 µM; in assay [6], 21 ± 10 µM.
Take `Nc1nc2c(ncn2[C@H]2CC[C@@H](COP(=O)(O)OP(=O)(O)OP(=O)(O)O)O2)c(=O)[nH]1` [ddGTP, reference compound]: the IC50 in assay [5] (setting [13]) is over 20 µM; in assay [5] (setting [14]) it was 0.26 ± 0.17 µM; in assay [5] (setting [15]) it was over 20 µM; in assay [5] (setting [16]), over 20 µM.
On to `Cc1cn([C@H]2CC[C@@H](COP(=O)(O)OP(=O)(O)OP(=O)(O)O)O2)c(=O)[nH]c1=O` [ddTTP, reference compound], for which the half-maximal inhibitory concentration (IC50) in assay [5] (setting [13]) was 0.05 ± 0.01 µM; in assay [5] (setting [14]), over 20 µM; in assay [5] (setting [15]) it was over 20 µM; in assay [5] (setting [16]), over 20 µM.
`Cc1cn(C[C@H]2CCC[C@H]2COC(C(=O)O)P(=O)(O)O)c(=O)[nH]c1=O` (relative stereo) [Compound 6a]: the half-maximal inhibitory concentration (IC50) in assay [1] (setting [7]) was over 500 µM; in assay [2] (read-out: IC50 HCMV DNA Pol) it was 40 ± 25 µM; in assay [3] (setting [8]), 73 ± 1 µM; in assay [4] (setting [9]), 14 ± 14 µM; in assay [5] (setting [10]), at least 500 µM; in assay [6] (setting [11]) it was 165 ± 100 µM.
With `Nc1ncnc2c1ncn2[C@H]1CC[C@@H](COP(=O)(O)OP(=O)(O)OP(=O)(O)O)O1` [ddATP, reference compound], the 50% inhibitory concentration (IC50) was over 20 µM in assay [5] (IC50 HIV-1 RT Poly rA.dT ([3H]dTTP), Table 7, Poly rA.dT, [3H]dTTP); over 20 µM in assay [5] (IC50 HIV-1 RT Poly rC.dG ([3H]dGTP), Poly rC.dG, [3H]dGTP); over 20 µM in assay [5] (IC50 HIV-1 RT Poly rI.dC ([3H]dCTP), Poly rI.dC, [3H]dCTP); 0.46 ± 0.12 µM in assay [5] (IC50 HIV-1 RT Poly rU.dA ([3H]dATP), Poly rU.dA, [3H]dATP).
For `Cc1cn(C[C@H]2CC=CC[C@H]2COC(C(=O)O)P(=O)(O)O)c(=O)[nH]c1=O` (relative stereo) [Compound 6c], the IC50 is over 500 µM in assay [1] (setting [7]); 3 ± 0.5 µM in assay [2] (read-out: IC50 HCMV DNA Pol); 8.5 ± 2.1 µM in assay [3] (setting [8]); 14 ± 3 µM in assay [4] (setting [9]); 425 ± 106 µM in assay [5] (setting [10]); 48 ± 36 µM in assay [6] (setting [11]). For the same compound, the “superior activity … compared to thymine-α-CNP” value in assay [2] was 8- to 13 fold.
On to `Cc1cn(Cc2cn(CCOC(C(=O)O)P(=O)(O)O)nn2)c(=O)[nH]c1=O` (centres unmarked) [Compound 6f, 2-(2-(4-((5-methyl-2,4-dioxo-3,4-dihydropyrimidin-1(2H)-yl)methyl)-1H-1,2,3-triazol-1-yl)ethoxy)-2-phosphonoacetic acid], for which the IC50 in assay [1] was 361 ± 160 µM; in assay [2] (IC50 HCMV DNA Pol), 38 ± 6 µM; in assay [3], 24 ± 4 µM; in assay [4], 25 ± 21 µM; in assay [5] (setting [12]), over 500 µM; in assay [6], 332 ± 28 µM.
Regarding `O=C(O)C(OCCCCn1cc(F)c(=O)[nH]c1=O)P(=O)(O)O` (centres unmarked) [Compound 6j, 2-(4-(5-Fluoro-2,4-dioxo-3,4-dihydropyrimidin-1(2H)-yl)butoxy)-2-phosphonoacetic acid], the IC50 in assay [1] (setting [7]) was 306 ± 3 µM; in assay [2] (read-out: IC50 HCMV DNA Pol), 9.4 ± 4.1 µM; in assay [3] (setting [8]), 4.1 ± 0.9 µM; in assay [4] (setting [9]) it was 6.7 ± 4.6 µM; in assay [5] (setting [10]), 263 ± 69 µM; in assay [6] (setting [11]) it was 72 ± 52 µM.
